Results: PubChem BioAssay AID256 (DTP/NCI, 2004)
“And” between values parts separate entries of the source, which are not always exact repeats. Identical values can stand only once. Inconclusive results and toxic doses are left out. How the source made its calls: active means survival T/C of 150% or more; inactive means T/C below 125% in these data.

Test system: CD2F1 mice, L1210 leukemia ip, survival T/C
Assay: NCI In Vivo Anticancer Drug Screen. Data for tumor model L1210 Leukemia (intraperitoneal) in CD2F1 (CDF1) mice
Conditions: higher = longer survival
How it was run: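 Mice carrying a transplanted tumor received test compound or vehicle alone. The value is the measurement in the treated group divided by that in the vehicle-treated control group.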

[1] = endpoint: mean survival time, dose: 50.0 mg/kg/injection, schedule: Q01DX009 (ip), vehicle: saline with Tween-80
[2] = endpoint: mean survival time, dose: 100.0 mg/kg/injection, schedule: Q01DX009 (ip), vehicle: saline with Tween-80
[3] = endpoint: mean survival time, dose: 200.0 mg/kg/injection, schedule: Q01DX009 (ip), vehicle: saline with Tween-80
[4] = endpoint: mean survival time, dose: 25.0 mg/kg/injection, schedule: Q01DX009 (ip), vehicle: saline
[5] = endpoint: mean survival time, dose: 50.0 mg/kg/injection, schedule: Q01DX009 (ip), vehicle: saline
[6] = endpoint: mean survival time, dose: 100.0 mg/kg/injection, schedule: Q01DX009 (ip), vehicle: saline
[7] = endpoint: mean survival time, dose: 100.0 mg/kg/injection, schedule: Q01DX001 (ip), vehicle: saline with Tween-80
[8] = endpoint: mean survival time, dose: 200.0 mg/kg/injection, schedule: Q01DX001 (ip), vehicle: saline with Tween-80
[9] = endpoint: mean survival time, dose: 400.0 mg/kg/injection, schedule: Q01DX001 (ip), vehicle: saline with Tween-80
[10] = endpoint: mean survival time, dose: 400.0 mg/kg/injection, schedule: Q01DX009 (ip), vehicle: saline with Tween-80
[11] = endpoint: mean survival time, dose: 200.0 mg/kg/injection, schedule: Q01DX009 (ip), vehicle: saline
[12] = endpoint: mean survival time, dose: 400.0 mg/kg/injection, schedule: Q01DX009 (ip), vehicle: saline
[13] = endpoint: mean survival time, dose: 6.25 mg/kg/injection, schedule: Q04DX003 (ip), vehicle: saline with Tween-80
[14] = endpoint: mean survival time, dose: 12.5 mg/kg/injection, schedule: Q04DX003 (ip), vehicle: saline with Tween-80
[15] = endpoint: mean survival time, dose: 25.0 mg/kg/injection, schedule: Q04DX003 (ip), vehicle: saline with Tween-80

Measured: T/C

C=CCOCC(COCC=C)OC1CCS(=O)(=O)C1 (centres undefined)
inactive: [1] 101 % of control | [2] 97 % of control | [3] 93 % of control

Cc1noc2nc(-c3ccccc3)cc(N3CCN(C)CC3)c12
inactive: endpoint: median survival time, dose: 12.5 mg/kg/injection, schedule: Q01DX005 (ip), vehicle: other 100 % of control | endpoint: median survival time, dose: 25.0 mg/kg/injection, schedule: Q01DX005 (ip), vehicle: other 103 % of control | endpoint: median survival time, dose: 50.0 mg/kg/injection, schedule: Q01DX005 (ip), vehicle: other 98 % of control | endpoint: median survival time, dose: 100.0 mg/kg/injection, schedule: Q01DX005 (ip), vehicle: other 97 % of control | endpoint: median survival time, dose: 200.0 mg/kg/injection, schedule: Q01DX005 (ip), vehicle: other 98 % of control

O=c1cc[nH]c(=S)[nH]1.[Pt]
inactive: endpoint: mean survival time, dose: 3.13 mg/kg/injection, schedule: Q04DX003 (ip), vehicle: distilled water + Tween-80 94 % of control | endpoint: mean survival time, dose: 6.25 mg/kg/injection, schedule: Q04DX003 (ip), vehicle: distilled water + Tween-80 97 % of control | endpoint: mean survival time, dose: 12.5 mg/kg/injection, schedule: Q04DX003 (ip), vehicle: distilled water + Tween-80 94 % of control | endpoint: mean survival time, dose: 25.0 mg/kg/injection, schedule: Q04DX003 (ip), vehicle: distilled water + Tween-80 97 % of control | endpoint: mean survival time, dose: 50.0 mg/kg/injection, schedule: Q04DX003 (ip), vehicle: distilled water + Tween-80 97 % of control | endpoint: mean survival time, dose: 100.0 mg/kg/injection, schedule: Q04DX003 (ip), vehicle: distilled water + Tween-80 103 % of control | endpoint: mean survival time, dose: 200.0 mg/kg/injection, schedule: Q04DX003 (ip), vehicle: distilled water + Tween-80 102 % of control

Cc1ccc(S(=O)(=O)OCC2OC(n3cnc4c(NC=O)ncnc43)C(OC=O)C2OC=O)cc1 (centres undefined)
inactive: [4] 104 % of control | [5] 102 % of control | [6] 98 % of control

COC(=O)C1C2CC(OS(=O)(=O)c3ccc(C)cc3)C(C2)C1C(=O)OC (centres undefined)
inactive: [7] 93 % of control | [2] 98 % of control | [8] 95 % of control | [3] 91 % of control | [9] 92 % of control | [10] 95 % of control

Oc1ccc(C(=S)N2CCOCC2)cc1
inactive: [6] 100 % of control | [11] 95 % of control | [12] 94 % of control

C#CC(OC(C)=O)C1OC(n2cnc3c(Cl)nc(Cl)nc32)C(OC(C)=O)C1OC(C)=O (centres undefined)
inactive: endpoint: median survival time, dose: 12.5 mg/kg/injection, schedule: Q01DX005 (ip), vehicle: distilled water + Tween-80 109 % of control and 103 % of control | endpoint: median survival time, dose: 25.0 mg/kg/injection, schedule: Q01DX005 (ip), vehicle: distilled water + Tween-80 107 % of control and 100 % of control | endpoint: median survival time, dose: 50.0 mg/kg/injection, schedule: Q01DX005 (ip), vehicle: distilled water + Tween-80 103 % of control | endpoint: median survival time, dose: 100.0 mg/kg/injection, schedule: Q01DX005 (ip), vehicle: distilled water + Tween-80 108 % of control and 111 % of control | endpoint: median survival time, dose: 200.0 mg/kg/injection, schedule: Q01DX005 (ip), vehicle: distilled water + Tween-80 102 % of control and 111 % of control

COC(=O)C(N)Cc1ccc(O)c(O)c1 (centres undefined)
inactive: endpoint: mean survival time, dose: 12.5 mg/kg/injection, schedule: Q01DX009 (ip), vehicle: saline 101 % of control and 107 % of control | [4] 101 % of control and 107 % of control | [5] 95 % of control and 103 % of control | [6] 94 % of control and 103 % of control and 107 % of control | [11] 113 % of control and 101 % of control and 110 % of control | [12] 117 % of control and 110 % of control (2×) | endpoint: mean survival time, dose: 800.0 mg/kg/injection, schedule: Q01DX009 (ip), vehicle: saline 116 % of control and 123 % of control

[Cl][Hg][Cl]
inactive: endpoint: median survival time, dose: 0.39 mg/kg/injection, schedule: Q01DX009 (ip), vehicle: saline 101 % of control | endpoint: median survival time, dose: 0.78 mg/kg/injection, schedule: Q01DX009 (ip), vehicle: saline 97 % of control | endpoint: median survival time, dose: 1.56 mg/kg/injection, schedule: Q01DX009 (ip), vehicle: saline 101 % of control | endpoint: median survival time, dose: 3.12 mg/kg/injection, schedule: Q01DX009 (ip), vehicle: saline 92 % of control

Nc1ccccc1SC(CC(=O)c1ccccc1)c1ccc2c(c1)OCO2 (centres undefined)
inactive: [2] 95 % of control | [3] 93 % of control | [10] 100 % of control

CCCCCC(C)SC#N (centres undefined)
inactive: [2] 97 % of control

Cc1cn(C2CC(OS(C)(=O)=O)C(COC(c3ccccc3)(c3ccccc3)c3ccccc3)O2)c(=O)[nH]c1=O (centres undefined)
inactive: endpoint: mean survival time, dose: 12.5 mg/kg/injection, schedule: Q01DX005 (ip), vehicle: other 95 % of control | endpoint: mean survival time, dose: 25.0 mg/kg/injection, schedule: Q01DX005 (ip), vehicle: other 90 % of control | endpoint: mean survival time, dose: 50.0 mg/kg/injection, schedule: Q01DX005 (ip), vehicle: other 91 % of control | endpoint: mean survival time, dose: 200.0 mg/kg/injection, schedule: Q01DX005 (ip), vehicle: other 91 % of control

C[n+]1csc2ccccc21
inactive: [7] 104 % of control | [2] 105 % of control | endpoint: mean survival time, dose: 100.0 mg/kg/injection, schedule: Q04DX003 (ip), vehicle: saline with Tween-80 103 % of control | [8] 98 % of control | [3] 105 % of control | endpoint: mean survival time, dose: 200.0 mg/kg/injection, schedule: Q04DX003 (ip), vehicle: saline with Tween-80 103 % of control | [9] 104 % of control | [10] 103 % of control | endpoint: mean survival time, dose: 400.0 mg/kg/injection, schedule: Q04DX003 (ip), vehicle: saline with Tween-80 105 % of control

NNC(=O)Nc1ccccc1
inactive: endpoint: mean survival time, dose: 6.25 mg/kg/injection, schedule: Q01DX001 (ip), vehicle: saline with Tween-80 102 % of control | endpoint: mean survival time, dose: 12.5 mg/kg/injection, schedule: Q01DX001 (ip), vehicle: saline with Tween-80 102 % of control | endpoint: mean survival time, dose: 25.0 mg/kg/injection, schedule: Q01DX001 (ip), vehicle: saline with Tween-80 97 % of control

O=C1CCCCCC1c1ccccc1 (centres undefined)
inactive: [2] 102 % of control | [3] 102 % of control | [10] 98 % of control

CN(C)N=Nc1cc(C(N)=O)cc(C(N)=O)c1
inactive: endpoint: mean survival time, dose: 18.75 mg/kg/injection, schedule: Q01DX009 (ip), vehicle: Klucel (hydroxypropylcellulose) (HPC) 101 % of control | endpoint: mean survival time, dose: 37.5 mg/kg/injection, schedule: Q01DX009 (ip), vehicle: Klucel (hydroxypropylcellulose) (HPC) 106 % of control | endpoint: mean survival time, dose: 75.0 mg/kg/injection, schedule: Q01DX009 (ip), vehicle: Klucel (hydroxypropylcellulose) (HPC) 124 % of control

[Cl][Pt+2][Cl].[NH-]C(c1ccccc1)C([NH-])c1ccccc1 (centres undefined)
inactive: [13] 112 % of control and 110 % of control and 96 % of control | [14] 102 % of control and 114 % of control and 106 % of control | [15] 120 % of control and 124 % of control and 114 % of control | endpoint: median survival time, dose: 10.0 mg/kg/injection, schedule: Q04DX003 (ip), vehicle: Klucel (hydroxypropylcellulose) (HPC) 111 % of control | endpoint: median survival time, dose: 20.0 mg/kg/injection, schedule: Q04DX003 (ip), vehicle: Klucel (hydroxypropylcellulose) (HPC) 113 % of control | endpoint: median survival time, dose: 40.0 mg/kg/injection, schedule: Q04DX003 (ip), vehicle: Klucel (hydroxypropylcellulose) (HPC) 122 % of control | endpoint: median survival time, dose: 50.0 mg/kg/injection, schedule: Q04DX003 (ip), vehicle: Klucel (hydroxypropylcellulose) (HPC) 101 % of control | endpoint: median survival time, dose: 80.0 mg/kg/injection, schedule: Q04DX003 (ip), vehicle: Klucel (hydroxypropylcellulose) (HPC) 112 % of control | endpoint: median survival time, dose: 100.0 mg/kg/injection, schedule: Q04DX003 (ip), vehicle: Klucel (hydroxypropylcellulose) (HPC) 107 % of control | endpoint: median survival time, dose: 200.0 mg/kg/injection, schedule: Q04DX003 (ip), vehicle: Klucel (hydroxypropylcellulose) (HPC) 107 % of control

O=S(=O)(F)c1cc(C[P+](c2ccccc2)(c2ccccc2)c2ccccc2)ccc1Cl
inactive: [13] 104 % of control | [14] 104 % of control | [15] 116 % of control

CCCCN(Cc1ccccc1)CC(O)C[NH-].O=C(O)CC(=O)O.[Pt+2] (centres undefined)
inactive: endpoint: median survival time, dose: 10.0 mg/kg/injection, schedule: Q04DX003 (ip), vehicle: water 98 % of control | endpoint: median survival time, dose: 20.0 mg/kg/injection, schedule: Q04DX003 (ip), vehicle: water 105 % of control | endpoint: median survival time, dose: 27.25 mg/kg/injection, schedule: Q04DX003 (ip), vehicle: water 101 % of control | endpoint: median survival time, dose: 40.0 mg/kg/injection, schedule: Q04DX003 (ip), vehicle: water 109 % of control | endpoint: median survival time, dose: 54.5 mg/kg/injection, schedule: Q04DX003 (ip), vehicle: water 101 % of control | endpoint: median survival time, dose: 80.0 mg/kg/injection, schedule: Q04DX003 (ip), vehicle: water 105 % of control | endpoint: median survival time, dose: 109.0 mg/kg/injection, schedule: Q04DX003 (ip), vehicle: water 108 % of control

COC(=O)c1ccccc1N1C(=O)C=CC1=O
inactive: [14] 98 % of control | [15] 89 % of control

Cc1ccc(NC(=O)OCCOc2ccccc2Cl)cc1C
inactive: [1] 96 % of control | [2] 93 % of control | [3] 93 % of control
